Experimental data: patent US12606544B2, “JAK1 selective kinase inhibitor” (DIZAL (JIANGSU) PHARMACEUTICAL CO., LTD., priority 2019, dated 2026)

What was measured:
[1] = molecular target: T1, TYK2 (Homo sapiens, UniProt P29597); assay: Lance Ultra Kinase Assay, recombinant TYK2; assay type: biochemical; settings: 5 mM ATP
T1 construct: purchased Carna Biosciences
Description: (§1) Recombinant JAK1, JAK2, JAK3 and TYK2 purchased from Carna Biosciences. The inhibition potency of compounds against JAK1, JAK2, JAK3 and TYK2 was assessed using Lance Ultra Kinase Assay.
(§2) In brief, recombinant kinases were pre-incubated in the presence or absence of compound at room temperature for 15 minutes. The reaction was initiated by the addition of 5 mM ATP and substrate peptide which could be phosphorylated by kinases in the reaction. After 60 minutes incubation, the reaction was stopped by the addition of the detection reagent mix containing EDTA. The fluorescence was measured at 615 nm and 665 nm, respectively with excitation wavelength at 320 nm. The calculated signal ratio of 665 nm/615 nm is proportional to the kinase activity.

[2] = molecular target: T2, JAK1 (Homo sapiens, UniProt P23458); assay: Lance Ultra Kinase Assay, recombinant JAK1; assay type: biochemical; settings: 5 mM ATP
T2 construct: purchased Carna Biosciences
Description: as §1, §2

[3] = molecular target: T3, JAK3 (Homo sapiens, UniProt P52333); assay: Lance Ultra Kinase Assay, recombinant JAK3; assay type: biochemical; settings: 5 mM ATP
T3 construct: purchased Carna Biosciences
T3 sequence (P52333 1-1124): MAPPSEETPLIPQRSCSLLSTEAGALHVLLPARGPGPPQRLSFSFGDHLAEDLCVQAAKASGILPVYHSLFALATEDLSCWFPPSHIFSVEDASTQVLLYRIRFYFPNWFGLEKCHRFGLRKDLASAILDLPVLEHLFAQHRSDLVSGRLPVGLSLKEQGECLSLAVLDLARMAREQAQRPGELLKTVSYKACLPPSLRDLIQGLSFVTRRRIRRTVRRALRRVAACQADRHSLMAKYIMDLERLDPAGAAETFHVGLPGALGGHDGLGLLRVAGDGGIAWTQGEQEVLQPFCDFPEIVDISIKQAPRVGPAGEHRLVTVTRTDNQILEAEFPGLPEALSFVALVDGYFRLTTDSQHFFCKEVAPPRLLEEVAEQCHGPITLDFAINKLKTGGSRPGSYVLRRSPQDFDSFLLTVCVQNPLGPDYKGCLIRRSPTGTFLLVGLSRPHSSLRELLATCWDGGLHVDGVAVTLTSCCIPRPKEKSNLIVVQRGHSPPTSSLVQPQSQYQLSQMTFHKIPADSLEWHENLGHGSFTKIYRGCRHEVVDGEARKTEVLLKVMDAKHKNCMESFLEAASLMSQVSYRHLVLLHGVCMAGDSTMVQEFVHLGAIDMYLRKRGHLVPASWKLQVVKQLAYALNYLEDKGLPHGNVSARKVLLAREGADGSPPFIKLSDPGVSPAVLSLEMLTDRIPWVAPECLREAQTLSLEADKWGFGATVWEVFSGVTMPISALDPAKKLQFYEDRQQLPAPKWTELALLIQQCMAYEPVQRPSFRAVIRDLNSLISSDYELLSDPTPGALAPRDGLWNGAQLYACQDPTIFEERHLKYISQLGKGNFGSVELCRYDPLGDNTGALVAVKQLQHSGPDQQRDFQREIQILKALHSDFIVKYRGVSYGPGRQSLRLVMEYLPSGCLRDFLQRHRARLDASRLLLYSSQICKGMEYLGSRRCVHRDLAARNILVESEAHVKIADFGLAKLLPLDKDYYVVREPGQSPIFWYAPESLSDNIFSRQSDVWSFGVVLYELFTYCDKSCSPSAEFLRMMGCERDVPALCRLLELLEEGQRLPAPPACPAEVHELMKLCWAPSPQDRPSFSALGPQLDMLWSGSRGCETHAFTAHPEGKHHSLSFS
Description: as §1, §2

[4] = molecular target: T4, JAK2 (Homo sapiens, UniProt O60674); assay: Lance Ultra Kinase Assay, recombinant JAK2; assay type: biochemical; settings: 5 mM ATP
T4 construct: purchased Carna Biosciences
Description: as §1, §2

[5] = test system: phosphorylation of STAT6; assay: Cellular p-STAT6 assay, IL-13 stimulated THP-1 cells, flow cytometry; assay type: cell-based; settings: Homo sapiens, THP-1, THP-1 cells, IL-13 10 ng/ml; read-out: pSTAT6 IC50
Description: To detect phosphorylated STAT6 (pSTAT6), THP-1 cells were harvested by centrifugation at 250 g for 5 min and resuspended in assay medium (RPMI1640+10% FBS) to 2×10^5 cells/well. Test compounds were applied to assay plates in serial dilution from 1 μM to 0.3 nM in DMSO. THP-1 cells were incubated with serial diluted compounds for 60 min at room temperature, followed by stimulation of interleukin (IL-13, 10 ng/ml) for 30 min, fixed in Cytofix buffer (BD Biosciences), and permeabilized in 90% methanol on ice. PE anti-pSTAT6 (BD Biosciences) antibodies were stained for 60 min at room temperature before being analyzed by flow cytometry. In the assay the compounds were thus diluted and dose-response curves for inhibition of the signal determine the IC50 for the compounds.

T1 sequence (P29597 whole entry): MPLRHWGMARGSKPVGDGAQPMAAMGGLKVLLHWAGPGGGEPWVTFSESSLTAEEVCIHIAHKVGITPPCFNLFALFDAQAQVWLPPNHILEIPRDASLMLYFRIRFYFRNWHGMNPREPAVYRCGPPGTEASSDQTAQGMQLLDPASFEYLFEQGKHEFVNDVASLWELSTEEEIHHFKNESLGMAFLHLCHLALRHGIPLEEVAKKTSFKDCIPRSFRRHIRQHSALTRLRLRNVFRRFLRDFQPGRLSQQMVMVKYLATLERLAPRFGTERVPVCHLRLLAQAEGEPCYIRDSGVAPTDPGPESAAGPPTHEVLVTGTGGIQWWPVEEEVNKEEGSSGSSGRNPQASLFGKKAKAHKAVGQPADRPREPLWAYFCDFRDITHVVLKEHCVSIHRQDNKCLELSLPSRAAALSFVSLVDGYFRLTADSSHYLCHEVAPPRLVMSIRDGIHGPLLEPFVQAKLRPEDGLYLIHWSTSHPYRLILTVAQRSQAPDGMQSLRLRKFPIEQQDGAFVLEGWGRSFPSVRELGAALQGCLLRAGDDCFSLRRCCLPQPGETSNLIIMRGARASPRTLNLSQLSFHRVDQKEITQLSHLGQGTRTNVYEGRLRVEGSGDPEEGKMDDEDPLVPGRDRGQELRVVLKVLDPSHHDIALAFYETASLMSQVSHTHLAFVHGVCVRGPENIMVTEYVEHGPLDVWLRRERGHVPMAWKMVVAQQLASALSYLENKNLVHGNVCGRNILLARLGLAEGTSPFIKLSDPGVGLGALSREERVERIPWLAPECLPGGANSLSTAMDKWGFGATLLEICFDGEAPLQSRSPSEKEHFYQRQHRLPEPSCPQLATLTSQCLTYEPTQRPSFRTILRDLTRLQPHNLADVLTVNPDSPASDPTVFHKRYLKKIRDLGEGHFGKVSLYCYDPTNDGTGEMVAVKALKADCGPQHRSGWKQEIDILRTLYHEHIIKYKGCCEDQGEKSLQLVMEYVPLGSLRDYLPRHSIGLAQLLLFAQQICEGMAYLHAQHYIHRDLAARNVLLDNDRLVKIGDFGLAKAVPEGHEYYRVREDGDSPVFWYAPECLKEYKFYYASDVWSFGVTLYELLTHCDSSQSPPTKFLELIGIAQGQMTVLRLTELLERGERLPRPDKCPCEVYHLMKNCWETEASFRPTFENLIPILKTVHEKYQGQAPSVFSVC
T4 sequence (O60674 whole entry): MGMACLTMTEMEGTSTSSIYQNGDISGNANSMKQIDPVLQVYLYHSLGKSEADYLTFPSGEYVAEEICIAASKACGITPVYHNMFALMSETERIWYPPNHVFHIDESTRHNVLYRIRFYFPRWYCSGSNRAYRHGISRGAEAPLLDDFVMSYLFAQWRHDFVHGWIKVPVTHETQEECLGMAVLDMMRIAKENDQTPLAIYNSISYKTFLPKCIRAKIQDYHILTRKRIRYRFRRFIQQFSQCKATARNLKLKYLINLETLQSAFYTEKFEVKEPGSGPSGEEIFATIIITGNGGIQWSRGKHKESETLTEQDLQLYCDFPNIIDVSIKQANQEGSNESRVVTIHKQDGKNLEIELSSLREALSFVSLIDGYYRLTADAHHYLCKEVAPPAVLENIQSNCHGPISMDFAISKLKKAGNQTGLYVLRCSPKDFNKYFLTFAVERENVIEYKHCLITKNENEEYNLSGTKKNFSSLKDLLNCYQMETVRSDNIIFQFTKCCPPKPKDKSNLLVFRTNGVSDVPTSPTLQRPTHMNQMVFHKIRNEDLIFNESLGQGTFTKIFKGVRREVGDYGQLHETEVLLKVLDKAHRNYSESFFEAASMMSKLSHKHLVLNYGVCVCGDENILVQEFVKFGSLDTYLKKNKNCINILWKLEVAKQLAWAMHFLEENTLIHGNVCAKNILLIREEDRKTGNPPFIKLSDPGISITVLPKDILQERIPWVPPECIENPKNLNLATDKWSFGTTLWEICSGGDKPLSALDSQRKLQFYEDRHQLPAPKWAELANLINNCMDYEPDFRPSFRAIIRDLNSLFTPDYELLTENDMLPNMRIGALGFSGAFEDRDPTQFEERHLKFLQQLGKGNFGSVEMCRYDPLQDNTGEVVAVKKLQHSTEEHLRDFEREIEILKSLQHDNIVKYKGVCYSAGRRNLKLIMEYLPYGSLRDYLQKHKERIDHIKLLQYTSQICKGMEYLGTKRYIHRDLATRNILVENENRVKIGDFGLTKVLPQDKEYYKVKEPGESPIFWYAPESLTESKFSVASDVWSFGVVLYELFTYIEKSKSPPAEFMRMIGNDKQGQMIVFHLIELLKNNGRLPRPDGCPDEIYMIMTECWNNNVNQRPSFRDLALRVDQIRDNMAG
T2 sequence (P23458 whole entry): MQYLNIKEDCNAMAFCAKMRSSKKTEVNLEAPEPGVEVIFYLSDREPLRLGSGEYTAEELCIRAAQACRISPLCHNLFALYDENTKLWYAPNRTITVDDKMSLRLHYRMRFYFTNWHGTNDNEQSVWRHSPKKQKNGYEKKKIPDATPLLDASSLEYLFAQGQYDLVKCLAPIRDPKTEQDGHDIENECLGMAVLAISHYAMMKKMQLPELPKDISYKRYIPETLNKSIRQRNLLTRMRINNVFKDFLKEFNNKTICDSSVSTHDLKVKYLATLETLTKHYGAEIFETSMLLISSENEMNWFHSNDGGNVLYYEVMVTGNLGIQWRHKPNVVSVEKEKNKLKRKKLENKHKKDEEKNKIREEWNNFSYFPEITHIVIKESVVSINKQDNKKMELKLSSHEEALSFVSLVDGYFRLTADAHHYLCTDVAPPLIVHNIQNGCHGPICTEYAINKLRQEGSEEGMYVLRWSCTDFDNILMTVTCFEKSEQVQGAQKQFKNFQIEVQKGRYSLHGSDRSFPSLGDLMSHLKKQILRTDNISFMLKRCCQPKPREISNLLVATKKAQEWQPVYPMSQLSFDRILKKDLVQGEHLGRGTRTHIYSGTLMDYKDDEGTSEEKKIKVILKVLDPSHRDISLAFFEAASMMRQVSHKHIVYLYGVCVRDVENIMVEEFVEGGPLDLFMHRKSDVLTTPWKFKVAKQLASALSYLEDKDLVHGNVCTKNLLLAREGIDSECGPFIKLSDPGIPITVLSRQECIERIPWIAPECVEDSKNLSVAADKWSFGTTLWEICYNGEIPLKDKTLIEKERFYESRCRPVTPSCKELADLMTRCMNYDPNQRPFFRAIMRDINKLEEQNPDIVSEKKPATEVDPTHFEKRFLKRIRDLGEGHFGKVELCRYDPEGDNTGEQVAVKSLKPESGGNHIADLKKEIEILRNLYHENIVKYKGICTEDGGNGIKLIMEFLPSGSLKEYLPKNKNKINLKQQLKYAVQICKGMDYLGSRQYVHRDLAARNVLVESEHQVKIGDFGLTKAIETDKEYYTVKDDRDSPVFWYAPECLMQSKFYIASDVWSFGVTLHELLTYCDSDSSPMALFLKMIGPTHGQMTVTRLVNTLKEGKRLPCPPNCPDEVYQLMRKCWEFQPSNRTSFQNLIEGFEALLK

CCOC(=O)Cc1ccc(Nc2ncc(F)c(-c3c[nH]c4c(NC(=O)[C@@H](COC)N5CCN(C)CC5)cccc34)n2)cn1 [Example 31, ethyl (R)-2-(5-((5-fluoro-4-(7-(3-methoxy-2-(4-methylpiperazin-1-yl)propanamido)-1H-indol-3-yl)pyrimidin-2-yl)amino)pyridin-2-yl)acetate]
IC50 [1]: 1310 nM | IC50 [2]: 0.15 nM | IC50 [3]: > 10000 nM | IC50 [4]: 218 nM | IC50 [5]: 10.4 nM

COC[C@H](C(=O)Nc1cccc2c(-c3nc(Nc4ccc5[nH]ncc5c4)ncc3F)c[nH]c12)N1CCN(C)CC1 [Example 32, (R)-N-(3-(2-((1H-indazol-5-yl)amino)-5-fluoropyrimidin-4-yl)-1H-indol-7-yl)-3-methoxy-2-(4-methylpiperazin-1-yl)propanamide]
IC50 [1]: 1490 nM | IC50 [2]: 0.16 nM | IC50 [3]: 9280 nM | IC50 [4]: 87 nM | IC50 [5]: 10.6 nM

COC[C@H](C(=O)Nc1cccc2c(-c3nc(Nc4cnc(CO)c(OC)c4)ncc3F)c[nH]c12)N1CCN(C)CC1 [Example 34, (R)-N-(3-(5-fluoro-2-((6-(hydroxymethyl)-5-methoxypyridin-3-yl)amino)pyrimidin-4-yl)-1H-indol-7-yl)-3-methoxy-2-(4-methylpiperazin-1-yl)propanamide]
IC50 [1]: 447 nM | IC50 [2]: 0.18 nM | IC50 [3]: > 10000 nM | IC50 [4]: 12 nM | IC50 [5]: 11.3 nM

CNC(=O)Cc1ccc(Nc2ncc(F)c(-c3c[nH]c4c(NC(=O)[C@@H](COC)N5CCN(C)CC5)cccc34)n2)cn1 [Example 39, (R)-N-(3-(5-fluoro-2-((6-(2-(methylamino)-2-oxoethyl)pyridin-3-yl)amino)pyrimidin-4-yl)-1H-indol-7-yl)-3-methoxy-2-(4-methylpiperazin-1-yl)propanamide]
IC50 [1]: 974 nM | IC50 [2]: 0.23 nM | IC50 [3]: > 10000 nM | IC50 [4]: 316 nM | IC50 [5]: 11.9 nM

COC[C@H](C(=O)Nc1cccc2c(-c3nc(Nc4ccc5[nH]ccc5c4)ncc3F)c[nH]c12)N1CCN(C)CC1 [Example 41, (R)-N-(3-(2-((1H-indol-5-yl)amino)-5-fluoropyrimidin-4-yl)-1H-indol-7-yl)-3-methoxy-2-(4-methylpiperazin-1-yl)propanamide]
IC50 [1]: 1430 nM | IC50 [2]: 0.22 nM | IC50 [3]: > 10000 nM | IC50 [4]: 110 nM | IC50 [5]: 12.6 nM

COC[C@H](C(=O)Nc1cccc2c(-c3nc(Nc4ccc5c(c4)CCOC5=O)ncc3F)c[nH]c12)N1CCN(C)CC1 [Example 42, (R)-N-(3-(5-fluoro-2-((1-oxoisochroman-6-yl)amino)pyrimidin-4-yl)-1H-indol-7-yl)-3-methoxy-2-(4-methylpiperazin-1-yl)propanamide]
IC50 [1]: 560 nM | IC50 [2]: 0.07 nM | IC50 [3]: 5260 nM | IC50 [4]: 16 nM | IC50 [5]: 12.8 nM

COC[C@H](C(=O)Nc1cccc2c(-c3nc(Nc4ccc5c(C(=O)OC)n[nH]c5c4)ncc3F)c[nH]c12)N1CCN(C)CC1 [Example 44, methyl (R)-6-((5-fluoro-4-(7-(3-methoxy-2-(4-methylpiperazin-1-yl)propanamido)-1H-indol-3-yl)pyrimidin-2-yl)amino)-1H-indazole-3-carboxylate]
IC50 [1]: > 10000 nM | IC50 [2]: 0.27 nM | IC50 [3]: > 10000 nM | IC50 [4]: 147 nM | IC50 [5]: 13.2 nM

COC[C@H](C(=O)Nc1cccc2c(-c3nc(Nc4ccc5c(CO)ncn5c4)ncc3F)c[nH]c12)N1CCN(C)CC1 [Example 46, (R)-N-(3-(5-fluoro-2-((1-(hydroxymethyl)imidazo[1,5-a]pyridin-6-yl)amino)pyrimidin-4-yl)-1H-indol-7-yl)-3-methoxy-2-(4-methylpiperazin-1-yl)propanainide]
IC50 [1]: > 10000 nM | IC50 [2]: 1.52 nM | IC50 [3]: > 10000 nM | IC50 [4]: 322 nM | IC50 [5]: 13.5 nM

COC[C@H](C(=O)Nc1cccc2c(-c3nc(Nc4ccc5ncsc5c4)ncc3F)c[nH]c12)N1CCN(C)CC1 [Example 47, (R)-N-(3-(2-(benzo[d]thiazol-6-ylamino)-5-fluoropyrimidin-4-yl)-1H-indol-7-yl)-3-methoxy-2-(4-methylpiperazin-1-yl)propanamide]
IC50 [1]: 556 nM | IC50 [2]: 0.13 nM | IC50 [3]: > 10000 nM | IC50 [4]: 81 nM | IC50 [5]: 14 nM

COC[C@H](C(=O)Nc1cccc2c(-c3nc(Nc4ccc5ncoc5c4)ncc3F)c[nH]c12)N1CCN(C)CC1 [Example 50, (R)-N-(3-(2-(benzo[d]oxazol-6-ylamino)-5-fluoropyrimidin-4-yl)-1H-indol-7-yl)-3-methoxy-2-(4-methylpiperazin-1-yl)propanamide]
IC50 [1]: 772 nM | IC50 [2]: 0.11 nM | IC50 [3]: > 10000 nM | IC50 [4]: 119 nM | IC50 [5]: 14.4 nM

COC[C@H](C(=O)Nc1cccc2c(-c3nc(Nc4ccc5ocnc5c4)ncc3F)c[nH]c12)N1CCN(C)CC1 [Example 51, (R)-N-(3-(2-(benzo[d]oxazol-5-ylamino)-5-fluoropyrimidin-4-yl)-1H-indol-7-yl)-3-methoxy-2-(4-methylpiperazin-1-yl)propanamide]
IC50 [1]: 1400 nM | IC50 [2]: 0.23 nM | IC50 [3]: > 10000 nM | IC50 [4]: 186 nM | IC50 [5]: 14.9 nM

COC[C@H](C(=O)Nc1cccc2c(-c3nc(Nc4ccc(NC(=O)OC)nc4)ncc3F)c[nH]c12)N1CCN(C)CC1 [Example 52, methyl (R)-(5-((5-fluoro-4-(7-(3-methoxy-2-(4-methylpiperazin-1-yl)propanamido)-1H-indol-3-yl)pyrimidin-2-yl)amino)pyridin-2-yl)carbamate]
IC50 [1]: 2170 nM | IC50 [2]: 0.43 nM | IC50 [3]: > 10000 nM | IC50 [4]: 363 nM | IC50 [5]: 15 nM

COC[C@H](C(=O)Nc1cccc2c(-c3nc(Nc4ccc(OCc5ncco5)nc4)ncc3F)c[nH]c12)N1CCN(C)CC1 [Example 54, (R)-N-(3-(5-fluoro-2-((6-(oxazol-2-ylmethoxy)pyridin-3-yl)amino)pyrimidin-4-yl)-1H-indol-7-yl)-3-methoxy-2-(4-methylpiperazin-1-yl)propanamide]
IC50 [1]: 4880 nM | IC50 [2]: 0.86 nM | IC50 [3]: > 10000 nM | IC50 [4]: 219 nM | IC50 [5]: 15.3 nM

COC[C@H](C(=O)Nc1cccc2c(-c3nc(Nc4cccc(CCC(=O)OC)n4)ncc3F)c[nH]c12)N1CCN(C)CC1 [Example 55, methyl (R)-3-(6-((5-fluoro-4-(7-(3-methoxy-2-(4-methylpiperazin-1-yl)propanamido)-1H-indol-3-yl)pyrimidin-2-yl)amino)pyridin-2-yl)propanoate]
IC50 [1]: > 10000 nM | IC50 [2]: 12.8 nM | IC50 [3]: > 10000 nM | IC50 [4]: 2710 nM | IC50 [5]: 15.3 nM

COC[C@H](C(=O)Nc1cccc2c(-c3nc(Nc4cc(CO)c5cn[nH]c5c4)ncc3F)c[nH]c12)N1CCN(C)CC1 [Example 61, (R)-N-(3-(5-fluoro-2-((4-(hydroxymethyl)-1H-indazol-6-yl)amino)pyrimidin-4-yl)-1H-indol-7-yl)-3-methoxy-2-(4-methylpiperazin-1-yl)propanamide]
IC50 [1]: 194 nM | IC50 [2]: 0.11 nM | IC50 [3]: 3590 nM | IC50 [4]: 8 nM | IC50 [5]: 17.7 nM
